Test results taken from paper PMC12274840 (The Journal of Biological Chemistry, 2025).
≈ marks a conversion by molar mass, not a printed value. Where two headings read alike, the source gives them in different places.

Experiments:
[1] = tested on: E. coli KA797 cells carrying BlaC position 105 library; format: cell-based, Escherichia coli; conditions: carbenicillin; for Fi CAR AVG: average of replicates
[2] = tested on: E. coli KA797 cells carrying CTX-M-14 position 105 library; format: cell-based
[3] = tested on: E. coli KA797 cells carrying pUK21 with KPC-2 (Tat); experiment: microbe, parasite or virus in culture; format: cell-based; conditions: Escherichia coli, antibiotic alone
[4] = tested on: E. coli KA797 cells carrying pUK21 with BlaC WT (Tat); experiment: microbe, parasite or virus in culture; format: cell-based; conditions: Escherichia coli, antibiotic alone
[5] = tested on: E. coli KA797 cells carrying NmcA position 105 library; format: cell-based
[6] = tested on: E. coli KA797 cells carrying pUK21 with CTX-M-14 WT (Tat); experiment: microbe, parasite or virus in culture; format: cell-based; conditions: Escherichia coli, antibiotic alone
[7] = tested on: E. coli KA797 cells carrying pUK21 vector without the β-lactamase gene; experiment: microbe, parasite or virus in culture; format: cell-based; conditions: Escherichia coli; antibiotic alone; pUK21 without β-lactamase gene; read-out: MIC

CC1(C)S[C@@H]2[C@H](NC(=O)C(C(=O)O)c3ccccc3)C(=O)N2[C@H]1C(=O)O (some centres unmarked) [carbenicillin]
Fi CAR AVG ([1]; AA 105 Ala): -0.273
Fi CAR 1 ([1]; AA 105 Ala, replicate 1): -0.487
Fi CAR 3 ([1]; AA 105 Ala, replicate 3): -0.060
Fi CAR AVG ([1]; AA 105 Arg): 0.354
Fi CAR 1 ([1]; AA 105 Arg, replicate 1): -0.038
Fi CAR 2 ([1]; AA 105 Arg, replicate 2): 0.623
Fi CAR 3 ([1]; AA 105 Arg, replicate 3): 0.477
Fi CAR AVG ([1]; AA 105 Asn): 0.070
Fi CAR 1 ([1]; AA 105 Asn, replicate 1): 0.359
Fi CAR 2 ([1]; AA 105 Asn, replicate 2): -0.104
Fi CAR 3 ([1]; AA 105 Asn, replicate 3): -0.045
Fi CAR AVG ([1]; AA 105 Asp): 0.382
Fi CAR 1 ([1]; AA 105 Asp, replicate 1): 0.054
Fi CAR 2 ([1]; AA 105 Asp, replicate 2): 0.201
Fi CAR 3 ([1]; AA 105 Asp, replicate 3): 0.891
Significance (Fi CAR AVG) ([1]; AA 105 Cys): +
Fi CAR AVG ([1]; AA 105 Cys): 0.765
Fi CAR 1 ([1]; AA 105 Cys, replicate 1): 0.616
Fi CAR 2 ([1]; AA 105 Cys, replicate 2): 0.636
Fi CAR 3 ([1]; AA 105 Cys, replicate 3): 1.043
Significance (Fi CAR AVG) ([1]; AA 105 Gln): +
Fi CAR AVG ([1]; AA 105 Gln): 1.328
Fi CAR 1 ([1]; AA 105 Gln, replicate 1): 1.419
Fi CAR 2 ([1]; AA 105 Gln, replicate 2): 1.237
Fi CAR AVG ([1]; AA 105 Glu): 0.421
Fi CAR 1 ([1]; AA 105 Glu, replicate 1): 1.372
Fi CAR 2 ([1]; AA 105 Glu, replicate 2): -0.419
Fi CAR 3 ([1]; AA 105 Glu, replicate 3): 0.311
Significance (Fi CAR AVG) ([1]; AA 105 Gly): -
Fi CAR AVG ([1]; AA 105 Gly): -0.444
Fi CAR 1 ([1]; AA 105 Gly, replicate 1): -0.596
Fi CAR 2 ([1]; AA 105 Gly, replicate 2): -0.209
Fi CAR 3 ([1]; AA 105 Gly, replicate 3): -0.526
Significance (Fi CAR AVG) ([1]; AA 105 His): +
Fi CAR AVG ([1]; AA 105 His): 2.514
Fi CAR 1 ([1]; AA 105 His, replicate 1): 2.622
Fi CAR 2 ([1]; AA 105 His, replicate 2): 2.393
Fi CAR 3 ([1]; AA 105 His, replicate 3): 2.527
Fi CAR AVG ([1]; AA 105 Ile (WT)): 0.000
Fi CAR 1 ([1]; AA 105 Ile (WT), replicate 1): 0.000
Fi CAR 2 ([1]; AA 105 Ile (WT), replicate 2): 0.000
Fi CAR 3 ([1]; AA 105 Ile (WT), replicate 3): 0.000
Significance (Fi CAR AVG) ([1]; AA 105 Leu): +
Fi CAR AVG ([1]; AA 105 Leu): 0.730
Fi CAR 1 ([1]; AA 105 Leu, replicate 1): 1.223
Fi CAR 2 ([1]; AA 105 Leu, replicate 2): 0.445
Fi CAR 3 ([1]; AA 105 Leu, replicate 3): 0.522
Fi CAR AVG ([1]; AA 105 Met): 0.034
Fi CAR 1 ([1]; AA 105 Met, replicate 1): 0.791
Fi CAR 3 ([1]; AA 105 Met, replicate 3): -0.722
Significance (Fi CAR AVG) ([1]; AA 105 Phe): +
Fi CAR AVG ([1]; AA 105 Phe): 3.398
Fi CAR 1 ([1]; AA 105 Phe, replicate 1): 3.349
Fi CAR 2 ([1]; AA 105 Phe, replicate 2): 3.354
Fi CAR 3 ([1]; AA 105 Phe, replicate 3): 3.492
Significance (Fi CAR AVG) ([1]; AA 105 Ser): +
Fi CAR AVG ([1]; AA 105 Ser): 0.539
Fi CAR 1 ([1]; AA 105 Ser, replicate 1): 0.311
Fi CAR 2 ([1]; AA 105 Ser, replicate 2): 0.896
Fi CAR 3 ([1]; AA 105 Ser, replicate 3): 0.410
Fi CAR AVG ([1]; AA 105 Thr): -0.255
Fi CAR 2 ([1]; AA 105 Thr, replicate 2): -0.487
Fi CAR 3 ([1]; AA 105 Thr, replicate 3): -0.023
Significance (Fi CAR AVG) ([1]; AA 105 Trp): +
Fi CAR AVG ([1]; AA 105 Trp): 3.306
Fi CAR 1 ([1]; AA 105 Trp, replicate 1): 3.226
Fi CAR 2 ([1]; AA 105 Trp, replicate 2): 3.199
Fi CAR 3 ([1]; AA 105 Trp, replicate 3): 3.493
Significance (Fi CAR AVG) ([1]; AA 105 Tyr): +
Fi CAR AVG ([1]; AA 105 Tyr): 3.672
Fi CAR 1 ([1]; AA 105 Tyr, replicate 1): 3.556
Fi CAR 2 ([1]; AA 105 Tyr, replicate 2): 3.582
Fi CAR 3 ([1]; AA 105 Tyr, replicate 3): 3.878
Fi CAR AVG ([1]; AA 105 Val): -0.016
Fi CAR 1 ([1]; AA 105 Val, replicate 1): 0.268
Fi CAR 2 ([1]; AA 105 Val, replicate 2): 0.226
Fi CAR 3 ([1]; AA 105 Val, replicate 3): -0.543
WT abs Fi 1 ([1]; WT (Ile 105) absolute fitness, replicate 1): -1.491
WT abs Fi 2 ([1]; WT (Ile 105) absolute fitness, replicate 2): -1.775
WT abs Fi 3 ([1]; WT (Ile 105) absolute fitness, replicate 3): -2.001
Significance of average fitness ([2]; CTX-M-14 AA 105 Ala): -
Significance of average fitness ([2]; CTX-M-14 AA 105 Arg): -
Significance of average fitness ([2]; CTX-M-14 AA 105 Asn): -
Significance of average fitness ([2]; CTX-M-14 AA 105 Asp): -
Significance of average fitness ([2]; CTX-M-14 AA 105 Cys): -
Significance of average fitness ([2]; CTX-M-14 AA 105 Gln): -
Significance of average fitness ([2]; CTX-M-14 AA 105 Glu): -
Significance of average fitness ([2]; CTX-M-14 AA 105 Gly): -
Significance of average fitness ([2]; CTX-M-14 AA 105 His): -
Significance of average fitness ([2]; CTX-M-14 AA 105 Ile): -
Significance of average fitness ([2]; CTX-M-14 AA 105 Leu): -
Significance of average fitness ([2]; CTX-M-14 AA 105 Lys): -
Significance of average fitness ([2]; CTX-M-14 AA 105 Met): -
Significance of average fitness ([2]; CTX-M-14 AA 105 Pro): -
Significance of average fitness ([2]; CTX-M-14 AA 105 Ser): -
Significance of average fitness ([2]; CTX-M-14 AA 105 Thr): -
Significance of average fitness ([2]; CTX-M-14 AA 105 Val): -
WT abs Fi 1 (absolute fitness of wild type, Replicate 1) ([2]; CTX-M-14 WT (Tyr 105)): 0.706
MIC [3]: 400 µg/mL (≈ 1060 µM)
MIC [4]: 800 µg/mL (≈ 2110 µM)
Fi AVG (average fitness of replicates) ([5]; NmcA AA 105 Ala): -0.798
Significance of average fitness ([5]; NmcA AA 105 Ala): -
Fi AVG (average fitness of replicates) ([5]; NmcA AA 105 Arg): -0.438
Significance of average fitness ([5]; NmcA AA 105 Arg): -
Fi AVG (average fitness of replicates) ([5]; NmcA AA 105 Asn): -0.329
Significance of average fitness ([5]; NmcA AA 105 Asn): -
Fi AVG (average fitness of replicates) ([5]; NmcA AA 105 Asp): -0.908
Significance of average fitness ([5]; NmcA AA 105 Asp): -
Fi AVG (average fitness of replicates) ([5]; NmcA AA 105 Cys): -0.727
Significance of average fitness ([5]; NmcA AA 105 Cys): -
Fi AVG (average fitness of replicates) ([5]; NmcA AA 105 Gln): -0.466
Significance of average fitness ([5]; NmcA AA 105 Gln): -
Fi AVG (average fitness of replicates) ([5]; NmcA AA 105 Glu): -0.772
Significance of average fitness ([5]; NmcA AA 105 Glu): -
Fi AVG (average fitness of replicates) ([5]; NmcA AA 105 Gly): -0.274
Significance of average fitness ([5]; NmcA AA 105 Gly): -
Fi AVG (average fitness of replicates) ([5]; NmcA AA 105 His): 0.000
Fi AVG (average fitness of replicates) ([5]; NmcA AA 105 Ile): -0.761
Significance of average fitness ([5]; NmcA AA 105 Ile): -
Fi AVG (average fitness of replicates) ([5]; NmcA AA 105 Leu): -0.728
Significance of average fitness ([5]; NmcA AA 105 Leu): -
Fi AVG (average fitness of replicates) ([5]; NmcA AA 105 Lys): -0.642
Significance of average fitness ([5]; NmcA AA 105 Lys): -
Fi AVG (average fitness of replicates) ([5]; NmcA AA 105 Met): -0.481
Significance of average fitness ([5]; NmcA AA 105 Met): -
Fi AVG (average fitness of replicates) ([5]; NmcA AA 105 Phe): -0.458
Significance of average fitness ([5]; NmcA AA 105 Phe): -
Fi AVG (average fitness of replicates) ([5]; NmcA AA 105 Pro): -0.671
Significance of average fitness ([5]; NmcA AA 105 Pro): -
Fi AVG (average fitness of replicates) ([5]; NmcA AA 105 Ser): -0.589
Significance of average fitness ([5]; NmcA AA 105 Ser): -
Fi AVG (average fitness of replicates) ([5]; NmcA AA 105 Thr): -0.842
Significance of average fitness ([5]; NmcA AA 105 Thr): -
Fi AVG (average fitness of replicates) ([5]; NmcA AA 105 Trp): -0.118
Significance of average fitness ([5]; NmcA AA 105 Trp): -
Fi AVG (average fitness of replicates) ([5]; NmcA AA 105 Tyr): -0.304
Significance of average fitness ([5]; NmcA AA 105 Tyr): -
Fi AVG (average fitness of replicates) ([5]; NmcA AA 105 Val): -0.711
Significance of average fitness ([5]; NmcA AA 105 Val): -
WT abs Fi 1 (absolute fitness) ([5]; NmcA WT, replicate 1): 0.462
WT abs Fi 2 (absolute fitness) ([5]; NmcA WT, replicate 2): 0.578
MIC [6]: 16000 µg/mL (≈ 42300 µM)
MIC [7]: 10 µg/mL (≈ 26.4 µM)
